Entries after “also recorded” stand apart in the source; their conditions may differ.
What was measured:
PDS2 dsDNA bait (ACGGGT) = assay: ELISA / bio-panning of M13 phage display peptides on biotinylated dsDNA bait PDS2; format: binding; conditions: peptide displayed in the phage library
From the text: (§1) As noted above, a commercially available M13 phage display library was employed (New England Biolabs, catalogue #E8111L) which contains around 1×10^912mer peptides fused to the N-terminus of the phage minor coat protein III. Two different 6 nt dsDNA baits were employed with a biotin tag immobilized on a streptavidin-coated 96 well plate as specified in Table 1 below:
(§2) ELISA assays were used to assess binding of peptides of the phage display library to the PDS1 and PDS2 dsDNA baits using an anti-M13 phage antibody labelled with horseradish peroxidase (HRP). After three rounds of bio-panning and sequence analysis of the bound peptides in the library, two 12 mer peptide sequences were selected, chemically synthesised, and modified as set out in Table 2 below.
(§3) • 1. Blocking step of the streptavidin coated 96 well plate (Fisher Scientific, UK) with the Blocking Buffer (0.1 M NaHCO3 (pH 8.6), 5 mg/ml BSA, filter sterilised and stored at 4° C.). • 2. 6 rounds of wash with 1× TBST after discarding the blocking solution. • 3. Precomplexing step (this step can be done at the same time as the blocking step, mentioned above), where the amplified phage library was incubated with each of the dsDNA baits in separate reactions. Each bait includes annealed double stranded DNA oligos (dsDNA), containing one of the PDS sites. […]

[1] = Observation of peptide aggregation / precipitation; format: physicochemical
[2] = tested on: molecular beacon DNA oligonucleotide (SEQ. ID. No. 60); assay: Molecular beacon assay for DNA binding and cleavage; format: biochemical; conditions: for emission signal of the fluorophore after a 15-minute incubation: peptide:molecular beacon 500:1, beacon 400 nM, 5 mM MnCl2; for signal / disassembly of the molecular beacon with different metal ions: zinc, manganese, calcium and magnesium chloride
From the text: A molecular beacon assay was firstly used to screen each of the peptides for DNA binding and cleavage. For the purpose of these studies, the following DNA oligonucleotide containing 33 nucleotides was employed
where the first six nucleotides at each terminus complement one another forming a 6 bp double stranded DNA stem.
The hairpin structure formed contains a fluorescein molecule as a 5′ modification (6-FAM) and a fluorescent quencher (BHQ1) as a 3′ modification. In the hairpin conformation the fluorescent signal of the molecular beacon is reduced. If a peptide binds or causes cleavage, the hairpin structure will disassemble releasing the fluorophore from the quencher.
The reaction conditions were chosen to reflect conditions that might be expected to strengthen the probability of DNA cleavage by each peptide. As noted above, the peptide designs were inspired by the catalytic active sites of known nucleases. Often the divalent metal of choice for such sites is Mg^2 +. […] In contrast Mn^2 + ions require less coordination sites to facilitate catalysis.
Each reaction was carried out in a reaction buffer of 25 mM Tris-HCl (pH 7.5), 130 mM NaCl, 27μM KCl and 5 mM MnCl2. The molecular beacon was provided at a concentration of 400 nM.
The emission signal of the fluorophore after a 15-minute incubation was measured for each peptide mixed with the molecular beacon at a 500:1 concentration ratio.

plasmid DNA (pBR322) = assay: Gel plasmid cleavage assay; format: biochemical; conditions: for percentage of nicked plasmid with increasing peptide concentration: after 12 hours
From the text: For this reason a further gel plasmid cleavage assay was employed to look for cleavage. Such a gel cleavage assay can differentiate between plasmid that is intact (no cleavage), nicked (ssDNA cleavage) and linearised (dsDNA cleavage) as the three plasmid species will migrate differently on an agarose gel. Intact plasmids have a supercoiled structure and therefore can migrate easily through an agarose gel whereas a ssDNA cleavage on the plasmid will relax this supercoiled structure. This produces a relaxed circle/nicked structure that migrates more slowly through the pores. The dsDNA cleavage of a plasmid produces a linearised plasmid. The linear structure migrates faster than a relaxed circular structure although not as fast as the supercoiled structure.
To optimize the assay, plasmid DNA (pBR322) was mixed with increasing concentrations of the peptide bL or bN, in the presence of Zn^2 + ions. […] The percentage of nicked species increases with greater peptide concentration for both bL and bN. […] An increasing proportion of the plasmid DNA is also observed in the wells of the gel. This DNA can be binding to the peptide causing a complex that is unable to migrate into the gel.

PDS1 dsDNA bait (GAGGTC) = assay: ELISA / bio-panning of M13 phage display peptides on biotinylated dsDNA bait PDS1; format: binding; conditions: peptide displayed in the phage library
From the text: as §1, §2, §3

[3] = tested on: nanoluciferase expression cassette with PDS variants in the target region; assay: Nanoluciferase detection assay for binding ability of the DBD to variant PDSs (ApGet-i); format: cell-based; conditions: EPI300 cells, ApGet-i induced with ATC, nanoluciferase induced with IPTG
From the text: As noted above the DBD of sequence SLETWLKHREKDGGS (SEQ. ID. No. 4) was selected on the basis of binding affinity for the dsDNA sequence represented by the 5′ to 3′ sequence 5′GAGGTC3′ (the initially chosen predetermined sequence (PDS) for use in targeting). A further study was undertaken to determine the importance of various nucleotides in this PDS for binding to the same DBD using a nanoluciferase detection assay (Promega). This was on the basis of the prior observation as noted above that expression of ApGet-i in bacteria can suppress transcription of sequences containing target sites for the NAC plus the PDS used for DBD selection.
A nanoluciferase expression cassette was cloned in a second plasmid vector (the Detector plasmid) with the PDS as originally used for DBD selection and variants of that PDS in the target region as shown in FIG. 22.
Bacterial cells were transformed with the Editor plasmid in which ApGet-i expression was under the control of a TetR promoter. The NAC was also expressed by the same plasmid under the control of a constitutive J23119 promoter. The Detector and Editor plasmids were provided with different resistance genes and compatible origins of replication. […] The signal of the nanoluciferase was monitored on the microplate reader and normalized to take account of the degree of bacterial growth in the culture. […]

[4] = tested on: extended dsDNA containing the cognate PDS (PDS1); assay: T7E1 cleavage assay for peptide binding and unwinding of dsDNA target; format: biochemical; conditions: chemically synthesized peptides, PDS1 as cognate PDS
From the text: FIG. 4: Cleavage assay results using T7E1 enzyme for binding of the chemically synthesized peptides 1, 2, 3 and 4 (Table 2 in Example 1) to the two 6 nt sequences as above designated PDS1 and PDS2 in a dsDNA target and unwinding of the dsDNA target.
It was reasoned that the phage clones with the selected DNA binding peptides will alter a DNA duplex in a region presenting the cognate PDS, which may result in recognition by DNA nucleases, such as T7E1, commonly used to detect insertions or deletions (indels), which result from the activity of genome editing enzymes, such as Cas9, Cas12a etc. Results of such cleavage assays for destabilized DNA duplex using the extended dsDNA baits as set out in Table 3 below and T7E1 and Surveyor enzymes support this hypothesis (see FIGS. 3a-c), i.e. that binding of the clones presenting the selected fused peptides to dsDNA destabilizes the structure of the DNA duplex in a manner facilitating accessibility for RNA hybridization.
The modified peptides as set out in Table 2 were used to test the sequences for use as DNA-binding domains without M13 phage connection. The modifications included amidation and acetylation at the […] to reflect natural peptide modifications to improve peptide stability and prevent degradation. In the case of Peptides 1 and 3, an additional C-terminal linker (GGS) was provided as noted above. […]

[5] = tested on: PDS1 in an extended dsDNA target; assay: FRET experiment for binding/unwinding of dsDNA and RNA hybridization; format: biochemical; conditions: FAM-tagged targeting RNA, target DNA tagged with Cy5 or Texas Red
Description: FIG. 5: Schematic diagram illustrating a FRET experiment to assess specific binding and unwinding of a dsDNA target by peptide binding to a PDS with RNA hybridization. Results are also shown for binding of Peptide 1 (SEQ. ID. No. 37 as shown in Table 2) to PDS1 having the 5′ to 3′ sequence GAGGTC. The FRET signal was determined upon incubation of the PDS1 containing dsDNA targets with 5′ FAM-RNA with (2, 4) or without peptide (1, 3).
A FRET experiment was carried out to assess the binding and unwinding activity of Peptide 1 with ability to facilitate RNA hybridization when presented with PDS1 in an extended dsDNA target as shown schematically in FIG. 5. It was hypothesized that, upon binding, Peptide 1 will cause some transient unwinding of the dsDNA which will facilitate binding of a targeting RNA. The fluorescent donor, 6-carboxyfluorescein (FAM), was used to tag an appropriate targeting RNA with a 15 bp complementary sequence. Target DNA was tagged with the fluorescent acceptor Cy5 at a 3′ end or Texas Red at a 5′-end.

AGDWESWTNGSW [Peptide 4]
binding to the PDS2 dsDNA bait (PDS2 dsDNA bait (ACGGGT)): binding to the PDS2 dsDNA bait

IEIDIHI [ibD]
aggregation / precipitation of peptide [1]: no observable aggregates even at the highest tested concentration

IHIDISI [bN]
signal with increasing peptide concentration, Zn2+ ions ([2]; Zn2+ ions, peptide 0-800 μM): still increase up to 800μM
signal without any metal ions ([2]; no metal): high signal
signal for the disassembly of the molecular beacon with increasing peptide concentration ([2]; peptide 0-800 μM, Mn2+ or Zn2+): general increase
signal with Mn2+ ions compared with Mg2+ ions ([2]; peptide concentration 400 μM, beacon 400 nM): greater than the bN peptide with Mg^2 + ions
emission signal of the fluorophore after a 15-minute incubation [2]: relatively high emission signal
signal / disassembly of the molecular beacon with different metal ions [2]: high increase in the signal regardless of the metal; also recorded: greater with Mn^2 + ions
cleavage of plasmid (plasmid DNA (pBR322)): some cleavage
percentage of nicked plasmid with increasing peptide concentration (plasmid DNA (pBR322); Zn2+ ions): increase in the percentage of nicked plasmid

LDLDLKLHL [bL]
emission signal of the fluorophore after a 15-minute incubation [2]: relatively high emission signal
signal / disassembly of the molecular beacon with different metal ions [2]: more extensive in the presence of zinc chloride ions
cleavage of plasmid (plasmid DNA (pBR322)): some cleavage
amount of nicked plasmid at higher peptide concentrations (greater than 600 μM) (plasmid DNA (pBR322); Zn2+ ions, 12 hours): continues to increase
percentage of nicked plasmid with increasing peptide concentration (plasmid DNA (pBR322); Zn2+ ions): increase in the percentage of nicked plasmid

SLETWLKHREKD [Peptide 2]
binding ability for the PDS1 dsDNA bait (PDS1 dsDNA bait (GAGGTC)): high binding ability

SLETWLKHREKDGGS (DBD) [DBD of SEQ. ID. No. 4]
inhibition of luciferase expression with different PDSs ([3]; listed as DBD): effective in inhibiting expression of the luciferase
inhibition of luciferase expression with different PDSs ([3]; listed as DBD of SEQ. ID no. 4): shown to be effective

SLETWLKHREKDGGS [Peptide 1]
binding and non-duplex structure formation (T7E1 cleavage) [4]: best candidate to be a DNA-binding domain
RNA-DNA hybridisation reflected by FRET signal [5]: shown to be facilitated; also recorded: increase of FRET signal

From patent publication US20260009008A1, “SYNTHETIC GENOME EDITING SYSTEM” (Pencil Biosciences Limited, priority 2021, published 2026)
